Source: patent US20060194819A1, “Activation specific inhibitors of nf-kb and method of treating inflammatory processes in cardio-vascular diseases” (PROCORDE GMBH, priority 2003, published 2006)

Columns and labels:
[1] = target: T1, IKK-complex (Homo sapiens, UniProt O14920+O15111+Q9Y6K9); experiment: In vitro/cell free kinase assay: IKK-complex immunoprecipitated from TNF alpha stimulated HeLa cells, drugs added afterwards, alpha screen; assay type: biochemical
T1 construct: IKK-complex was immunoprecipitated with anti-NEMO-antibody; endogenous in cells; host or cells: HeLa
T1 sequence (O14920 whole entry): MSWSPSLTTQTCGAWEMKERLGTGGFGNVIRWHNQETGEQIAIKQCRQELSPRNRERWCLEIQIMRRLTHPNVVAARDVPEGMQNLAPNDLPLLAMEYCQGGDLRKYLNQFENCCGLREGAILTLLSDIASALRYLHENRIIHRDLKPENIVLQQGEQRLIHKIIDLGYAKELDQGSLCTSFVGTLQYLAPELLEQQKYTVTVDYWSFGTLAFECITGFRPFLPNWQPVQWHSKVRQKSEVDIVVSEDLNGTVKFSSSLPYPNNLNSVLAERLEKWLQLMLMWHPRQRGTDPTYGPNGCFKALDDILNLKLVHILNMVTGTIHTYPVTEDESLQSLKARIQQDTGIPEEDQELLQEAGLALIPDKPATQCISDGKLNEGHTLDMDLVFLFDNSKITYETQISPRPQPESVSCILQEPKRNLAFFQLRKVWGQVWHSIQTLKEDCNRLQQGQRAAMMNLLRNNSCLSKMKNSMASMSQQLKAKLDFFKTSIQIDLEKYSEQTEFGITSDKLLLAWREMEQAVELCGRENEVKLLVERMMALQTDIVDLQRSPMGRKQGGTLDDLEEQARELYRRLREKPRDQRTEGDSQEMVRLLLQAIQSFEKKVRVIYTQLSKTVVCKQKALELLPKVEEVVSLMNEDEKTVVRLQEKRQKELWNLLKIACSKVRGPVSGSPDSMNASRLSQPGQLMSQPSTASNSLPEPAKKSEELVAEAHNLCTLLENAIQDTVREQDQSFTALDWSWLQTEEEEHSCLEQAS
T1 sequence (O15111 whole entry): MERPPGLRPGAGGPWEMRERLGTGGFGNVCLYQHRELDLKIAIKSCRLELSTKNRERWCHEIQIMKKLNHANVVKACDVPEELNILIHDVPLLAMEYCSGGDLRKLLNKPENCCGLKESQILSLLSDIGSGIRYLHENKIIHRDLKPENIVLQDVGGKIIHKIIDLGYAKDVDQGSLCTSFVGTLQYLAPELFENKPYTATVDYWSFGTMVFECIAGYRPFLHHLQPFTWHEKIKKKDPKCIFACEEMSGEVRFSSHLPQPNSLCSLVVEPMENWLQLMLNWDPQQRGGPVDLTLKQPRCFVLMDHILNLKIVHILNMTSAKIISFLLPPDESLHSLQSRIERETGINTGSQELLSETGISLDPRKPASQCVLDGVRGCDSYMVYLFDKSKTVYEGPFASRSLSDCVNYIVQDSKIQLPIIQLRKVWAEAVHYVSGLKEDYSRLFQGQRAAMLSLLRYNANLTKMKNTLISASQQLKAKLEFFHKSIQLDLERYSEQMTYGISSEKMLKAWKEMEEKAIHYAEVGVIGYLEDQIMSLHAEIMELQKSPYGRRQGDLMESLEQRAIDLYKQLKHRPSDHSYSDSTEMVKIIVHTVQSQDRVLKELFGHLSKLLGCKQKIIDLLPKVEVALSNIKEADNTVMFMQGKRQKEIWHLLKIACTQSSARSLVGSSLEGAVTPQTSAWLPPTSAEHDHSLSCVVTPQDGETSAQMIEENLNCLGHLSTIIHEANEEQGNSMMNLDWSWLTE
T1 sequence (Q9Y6K9 whole entry): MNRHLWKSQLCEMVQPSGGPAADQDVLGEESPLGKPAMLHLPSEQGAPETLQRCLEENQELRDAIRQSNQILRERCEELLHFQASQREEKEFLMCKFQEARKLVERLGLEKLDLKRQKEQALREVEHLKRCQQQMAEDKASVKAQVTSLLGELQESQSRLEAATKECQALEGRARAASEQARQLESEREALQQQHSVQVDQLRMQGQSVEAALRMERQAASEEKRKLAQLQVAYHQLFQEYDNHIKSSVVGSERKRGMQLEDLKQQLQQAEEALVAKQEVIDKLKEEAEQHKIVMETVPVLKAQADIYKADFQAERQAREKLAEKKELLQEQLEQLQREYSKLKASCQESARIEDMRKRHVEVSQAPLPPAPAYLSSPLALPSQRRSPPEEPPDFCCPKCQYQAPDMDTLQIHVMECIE
Method: In vitro/cell free kinase assay protocol: HeLa cells were maintained in Dulbecco's modified Eagle's medium (Invitrogen) supplemented with 10% fetal bovine serum, 2 mM L-glutamine, penicillin (50 units/ml) and streptomycin (50 μg/ml). 24 h before treatment with TNF alpha HeLa cells were plated at a density of 1×10^7 per well in 175-mm cell culture dishes to 90% confluences.
The cells were stimulated with 20 ng/ml TNF alpha (Roche) without drugs. After 7 min the cells were washed twice with ice cold PBS followed by scraping and transferring into a 1.5 ml micro centrifuge tube. […] 6.6 μl of detection-buffer (20 mM Hepes pH 7.5, 100 mM NaCl, 1% Tween, 0.1 mM BSA, 50 μg/ml Protein A-Acceptor beads, 250 μg/ml Streptavidin-Donor beads (both Perkin-Elmer), 4 nM anti-phospho-IKBα-antibody (Santa Cruz Biotechnology) was dispensed to each well. After incubation for 1.5 h the plate was measured by alpha screen reader (Perkin Elmer).

[2] = tested on: systemic TNF alpha release; experiment: LPS induced systemic inflammation in rats, serum TNF alpha by ELISA; assay type: in vivo; settings: compound 1 μg/g IV pre-treatment, LPS 0.33 μg/g IV
Method: Systemic inflammatory response in rats was induced by lipopolysaccharide (LPS) shock (IV administration of LPS 0.33 μg/g). Inflammatory and inhibition of inflammation by IV administration of compound 56 (1 μg/g) to rats was determined by TNF alphaquantification in […] serum. TNF alpha was detected with an ELISA kit (Pierce) according to the manufacturer's instructions.

## CCOC(=O)C1=C(C)N=c2s/c(=C/c3ccc(-c4cccc(C(=O)O)c4)o3)c(=O)n2C1c1ccc(Cl)cc1 (stereo not drawn) [COM 56, 2-[5-(3-Carboxyphenyl)-furan-2-ylmethylene]-5-(4-chlorophenyl)-7-methyl-3-oxo-2,3-dihydro-5H-thiazolo[3,2-a]pyrimidine-6-carboxylic acid ethyl ester]
[1]; cell-free assay
  potency in the inhibition of IKK activity compared to COM 73: significantly higher
[1]; increasing concentrations on isolated IKK complex
  inhibition of IKK activity in cell-free assay: dose-dependently inhibited
[2]
  TNF alpha concentrations in rat serum after LPS: significantly inhibited
